Measurements: patent US6509010B2, “Cosmetic products for the reduction of sweat acidity” (Unilever Home & Personal Care USA, division of Conopco, Inc., priority 2001, dated 2003)
Read-outs that look alike come from different tables or passages of the source.

How the values were obtained:
V-ATPase = assay: Proton transfer inhibition: intracellular pH recovery after ammonium chloride pulse in isolated, microperfused human eccrine sweat reabsorptive ducts (BCECF-type probe); assay type: cell-based; details: for Inhibition of proton transfer out of the cells of the reabsorptive duct: significant at the 95% level (Student t-test); for Rate of pH recovery (%): control = 100, after 20 mM basolateral ammonium chloride pulse, 37° C.
Procedure: Human eccrine sweat ducts were isolated using the Kealey shearing technique (Lee C. M., Jones C. J., and Kealey T., J. Cell. Sci., 72, 1984, 259-274). Isolated portions of reabsorptive duct were mounted on a conventional microperfusion apparatus, between glass pipettes. One end of the duct was cannulated with a microperfusion pipette. The ducts were perfused at 37° C. with a control solution containing N-methyl-D-glucamine chloride (114 mM), potassium hydrogenphosphate (2.5 mM), magnesium chloride (1 mM), calcium chloride (1 mM), glucose (5 mM), and N-methyl-D-glucamine lactate (4 mM). Osmolality was adjusted to 300 mOsm/kg with mannitol and the pH adjusted to 7.4 with tris-HEPES. Intracellular pH was measured using the pH sensitive fluorescent probe BCEFC (bis-2-carboxyethyl-carbfluorescein) at 5 μM.
[…].
In the next part of the procedure, the indicated sweat ducts were subjected to acidification by a 20 mM basolateral pulse of ammonium chloride, with the additional presence of a V-ATPase inhibitor.

[1] = tested on: Staphylococcus epidermidis; details: 80% or greater reduction in growth over 16 to 24 hours at 37° C., cited from earlier work

Chain of V-ATPase (P27449 whole entry, the tested form may be a part): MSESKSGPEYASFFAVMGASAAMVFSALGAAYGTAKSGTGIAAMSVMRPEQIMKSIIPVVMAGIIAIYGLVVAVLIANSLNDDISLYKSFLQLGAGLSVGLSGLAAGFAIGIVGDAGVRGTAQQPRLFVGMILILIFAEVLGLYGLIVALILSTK

In the case of `CO/C1=C\C(C)=C\[C@@H](C)[C@@H](O)[C@@H](C)C/C(C)=C/C=C/[C@H](OC)[C@@H]([C@@H](C)[C@@H](O)[C@H](C)[C@@]2(O)C[C@@H](O)[C@H](C)[C@@H](C(C)C)O2)OC1=O` [Bafilomycin-A1, bafilomycin A1], the “Inhibition of proton transfer out of the cells of the reabsorptive duct” value (“Inhibition” for short) (V-ATPase; at 6.2 μg/ml) is reported as “inhibit proton transfer” and the “Rate of pH recovery (%)” value (V-ATPase; inhibitor at 6.2 μg/ml) is reported as 27%.
For `C/C=C/[C@H]1O[C@@](O)([C@@H](C)[C@H](O)[C@H](C)[C@H]2OC(=O)/C(OC)=C/C(C)=C/[C@@H](C)[C@@H](O)[C@@H](CC)[C@@H](O)[C@H](C)C/C(C)=C/C=C/[C@@H]2OC)C[C@@H](O[C@H]2C[C@@H](O)[C@H](OC(N)=O)[C@@H](C)O2)[C@@H]1C` [Concanamycin-A, concanamycin A], the “Inhibition” value (V-ATPase; at 0.1 μg/ml) was “inhibit proton transfer” and the “Rate of pH recovery (%)” value (V-ATPase; inhibitor at 0.1 μg/ml) was 5%.
In the case of `CCO` [ethanol], the MIC ([1]; stated without source) is listed as “greater than 1 mg.ml^−1”.
For `CC(C)=CCCC(C)=CCCC(C)=CCO` [farnesol, 3,7,11-trimethyldodeca-2,6,10-trienol], the MIC ([1]; literature values) is listed as “ca. 25 μg.ml^−1”.
For `Oc1cc(Cl)ccc1Oc1ccc(Cl)cc1Cl` [triclosan, 2′,4,4′-trichloro,2-hydroxy-diphenyl ether], the MIC ([1]; literature values) is listed as 0.01 to 10 µg/mL.
In the case of olygomycin, the “Inhibition” value (V-ATPase; at 20 μg/ml) is reported as “inhibit proton transfer” and the “Rate of pH recovery (%)” value (V-ATPase; inhibitor at 20 μg/ml) is reported as 12%.
